These are literature values, as cited in patent US6989139B2, “Matrix metalloproteinase inhibitors” (Bristol-Myers Squibb Pharma Company, priority 2000, dated 2006).

One data set has as its system MMP's. As to conditions: literature statement.
Data set [1] relates to MMP-2, MMP-9 vs MMP-1, MMP-3. As to conditions: Lovejoy et al 1999.

With `CC(C)C[C@H]1C(=O)N[C@H](C(=O)NCc2ccc(CNC(=O)C(CS(=O)(=O)O)NC(=O)CN3CCN(CC(=O)O)CCN(CC(=O)O)CCN(CC(=O)O)CC3)cc2)Cc2ccc(cc2)OCCC[C@@H]1C(=O)NO` (stereo partly drawn) [Example 6, 2-[7-({N-[1-(N-{[4-({[7-(N-hydroxycarbamoyl)(3S,6R,7S)-4-aza-6-(2-methylpropyl)-11-oxa-5-oxobicyclo[10.2.2]hexadeca-1(15),12(16),13-trien-3-yl]-carbonylamino}methyl)phenyl]methyl}carbamoyl)-2-sulfoethyl]carbamoyl}methyl)-1,4,7,10-tetraaza-4,10-bis(carboxymethyl)cyclododecyl]acetic Acid], the MMP inhibitory activity result with MMP's is reported as “nanomolar activity”. With “2-[2-({5-[N-(5-(N-hydroxycarbamoyl)(5R)-5-{3-[4-(3,4-dimethoxyphenoxy)phenyl]-3-methyl-2-oxopyrrolidinyl}pentyl)carbamoyl](2-pyridyl)}amino)(1Z)-2-azavinyl]benzenesulfonic Acid [Example 15]”, the MMP inhibitory activity result in the data set with MMP's is “good activity”.

`O=C(NO)C1(CS(=O)(=O)c2ccc(Oc3ccc(Cl)cc3)cc2)CCOCC1` [Example 13]: the “selectivity for MMP-2 and MMP-9 over MMP-1” value in data set [1] is “selectivity for MMP-2 and MMP-9 over MMP-1”. For “2-[(2-{[(N-{[4-({[7-(N-hydroxycarbamoyl)(3S,6R,7S)-4-aza-6-(2-methylpropyl)-11-oxa-5-oxobicyclo[10.2.2)hexadeca-1(15),12(16),13-trien-3-yl]-carbonylamino}methyl)phenyl]methyl}carbamoyl)methyl](carboxymeth yl)amino}ethyl){2-[bis(carboxymethyl)amino]ethyl}amino]acetic Acid [Example 8]”, in the data set with MMP's, the MMP inhibitory activity result is “potent inhibition”.
